Results: US20110028455A1, “Indole-substituted 3-cyanopyridines As Kinase Inhibitors” (Wyeth LLC, priority 2007, published 2011)
pIC50: −log10 of the molar value.

tested on: not listed separately; assay: Metabolic stability in rat liver microsomes; type: in vitro ADME; settings: 30 minutes incubation, remaining compound by HPLC, 6-Me compounds of the invention
Experimental: In order to probe the metabolic stability of the compounds of the invention, a series of compounds were selected for stability testing in rat liver microsomes. A DMSO solution of each compound was incubated for 30 minutes in the presence of rat liver homogenate. The percentage of remaining compound was assessed by HPLC. An approximate half life was calculated from the percentage of remaining compound. Table II, below, illustrates a comparison of the in vitro microsomal half life of the selected compounds verses a series of related compounds lacking the C-6 alkyl group. […] It is generally accepted in the industry that improved in vitro metabolic stability frequently translates into improved in vivo metabolic stability. Improved metabolic stability may translate to increased in vivo exposure levels.

Compound	Rat Microsome Stability of 6-Me cyanopyridine Compounds (approximate half life)
5-{4-[2-(4-cyclopentylpiperazin-1-yl)ethoxy]phenyl}-6-methyl-4-[(4-methyl-1H-indol-5-yl)amino]nicotinonitrile [Example 37]	>30 min

same assay, conditions: 30 minutes incubation, remaining compound by HPLC, 6-Me compounds of the invention, read-out: Rat Microsome Stability of 6-Me cyanopyridine Compounds (approximate half life)

Compound	half-life
CCOCCNCCOc1ccc(-c2c(C)ncc(C#N)c2Nc2ccc3[nH]ccc3c2C)cc1 [Example 19, 5-(4-{2-[(2-ethoxyethyl)amino]ethoxy}phenyl)-6-methyl-4-[(4-methyl-1H-indol-5-yl)amino]nicotinonitrile]	> 30 min
Cc1ncc(C#N)c(Nc2ccc3[nH]ccc3c2C)c1-c1ccc(OCCN2CCCC2)cc1 [Example 20, 6-methyl-4-[(4-methyl-1H-indol-5-yl)amino]-5-[4-(2-pyrrolidin-1-ylethoxy)phenyl]nicotinonitrile]	> 30 min
Cc1ncc(C#N)c(Nc2ccc3[nH]ccc3c2C)c1-c1ccc(OCCNC2CCN(C)CC2)cc1 [Example 22, 6-methyl-4-[(4-methyl-1H-indol-5-yl)amino]-5-(4-{2-[(1-methylpiperidin-4-yl)amino]ethoxy}phenyl)nicotinonitrile]	> 30 min
Cc1ncc(C#N)c(Nc2ccc3[nH]ccc3c2C)c1-c1ccc(OCCNCC2CCN(C)CC2)cc1 [Example 23, 6-methyl-4-[(4-methyl-1H-indol-5-yl)amino]-5-[4-(2-{[(1-methylpiperidin-4-yl)methyl]amino}ethoxy)phenyl]nicotinonitrile]	> 30 min
Cc1ncc(C#N)c(Nc2ccc3[nH]ccc3c2C)c1-c1ccc(OCCN2CCC(c3ccccc3)CC2)cc1 [Example 29, 6-methyl-4-[(4-methyl-1H-indol-5-yl)amino]-5-{4-[2-(4-phenylpiperidin-1-yl)ethoxy]phenyl}nicotinonitrile]	20 min

same assay, conditions: 30 minutes incubation, remaining compound by HPLC, related compounds lacking the C-6 alkyl group, read-out: Rat Microsome Stability of 6-H cyanopyridine Compounds (approximate half life)

Compound	half-life
Cc1c(Nc2c(C#N)cncc2-c2ccc(OCCN3CCC(N4CCOCC4)CC3)cc2)ccc2[nH]ccc12	10 min
Cc1c(Nc2c(C#N)cncc2-c2ccc(OCCN3CCC(c4ccccc4)CC3)cc2)ccc2[nH]ccc12	5 min
Cc1c(Nc2c(C#N)cncc2-c2ccc(OCCNCc3ccccn3)cc2)ccc2[nH]ccc12	3 min
Cc1c(Nc2c(C#N)cncc2-c2ccc(OCCNCCCn3ccnc3)cc2)ccc2[nH]ccc12	22 min
Cc1c(Nc2c(C#N)cncc2-c2ccc(OCCNCc3ccccc3)cc2)ccc2[nH]ccc12	6 min
Cc1c(Nc2c(C#N)cncc2-c2ccc(OCCN3CCN(CCN(C)C)CC3)cc2)ccc2[nH]ccc12	> 30 min
Cc1c(Nc2c(C#N)cncc2-c2ccc(OCCN3CCN(CCO)CC3)cc2)ccc2[nH]ccc12	11 min
CCN1CCN(CCOc2ccc(-c3cncc(C#N)c3Nc3ccc4[nH]ccc4c3C)cc2)CC1	8 min
Cc1c(Nc2c(C#N)cncc2-c2ccc(OCCN3CCC(N4CCCC4)CC3)cc2)ccc2[nH]ccc12	> 30 min
Cc1c(Nc2c(C#N)cncc2-c2ccc(OCCN3CCOCC3)cc2)ccc2[nH]ccc12	8 min
Cc1c(Nc2c(C#N)cncc2-c2ccc(OCCNC3CCN(C)CC3)cc2)ccc2[nH]ccc12	> 30 min
Cc1c(Nc2c(C#N)cncc2-c2ccc(OCCNCC3CCN(C)CC3)cc2)ccc2[nH]ccc12	> 30 min
Cc1c(Nc2c(C#N)cncc2-c2ccc(OCCN3CCCC3)cc2)ccc2[nH]ccc12	21 min
Cc1c(Nc2c(C#N)cncc2-c2ccc(OCCN3CCN(C)CC3)cc2)ccc2[nH]ccc12	14 min
CCOCCNCCOc1ccc(-c2cncc(C#N)c2Nc2ccc3[nH]ccc3c2C)cc1	7 min

biological target: T1, human PKCθ full length enzyme (Homo sapiens, UniProt Q04759); assay: PKCθ IMAP Assay; type: biochemical; settings: PKCθ 1 nM; ATP 6 μM; peptide 100 nM; DMSO 5%; 25 minutes at room temperature; FP readout; read-out: PKC-Theta Mean IC50
T1 construct: human PKCθ full length enzyme (Panvera Cat# P2996); purchased Panvera P2996
Experimental: The materials used include the following: human PKCθ full length enzyme (Panvera Cat# P2996); substrate peptide: 5FAM-RFARKGSLRQKNV-OH (Molecular Devices, RP7032); ATP (Sigma Cat # A2383); DTT (Pierce, 20291); 5× kinase reaction buffer (Molecular Devices, R7209); 5× binding buffer A (Molecular Devices, R7282), 5× binding buffer B (Molecular Devices, R7209); IMAP Beads (Molecular Devices, R7284); and 384-well plates (Corning Costar, 3710).
The reaction buffer was prepared by diluting the 5× stock reaction buffer and adding DTT to obtain a concentration of 3.0 mM. The binding buffer was prepared by diluting the 5× binding buffer A. A master mix solution was prepared using a 90% dilution of the reaction buffer containing 2×ATP (12 uM) and 2× peptide (200 nm). Compounds were diluted in DMSO to 20× of the maximum concentration for the IC50 measurement. 27 μl of the master mix solution for each IC50 curve was added to the first column in a 384-well plate and 3 μl of 20× compound in DMSO was added to each well.
The final concentration of compound was 2× and 10% DMSO. DMSO was added to the rest of the master mix to increase the concentration to 10%. 10 μl of the master mix containing 10% DMSO was added to the rest of the wells on the plate except the 2nd column. 20 μl was transferred from the first column to the 2nd column. The compounds were serially diluted in 2:1 ratio starting from the 2nd column. A 2×(2 nM) PKCθ solution was made in the reaction buffer. 10 μl of the PKCθ solution was added to every well to achieve these final concentrations: PKCθ-1 nM; ATP-6 μM; peptide-100 nM; DMSO-5%. Samples were incubated for 25 minutes at room temperature. The binding reagent was prepared by diluting the beads in 1× binding buffer to 800:1. 50 μl of the binding reagent was added to every well and incubated for 20 minutes. FP was measured using Envision2100 (PerkinElmer Life Sciences). Wells with no ATP and wells with no enzyme were used as controls.

T1 sequence (Q04759 whole entry): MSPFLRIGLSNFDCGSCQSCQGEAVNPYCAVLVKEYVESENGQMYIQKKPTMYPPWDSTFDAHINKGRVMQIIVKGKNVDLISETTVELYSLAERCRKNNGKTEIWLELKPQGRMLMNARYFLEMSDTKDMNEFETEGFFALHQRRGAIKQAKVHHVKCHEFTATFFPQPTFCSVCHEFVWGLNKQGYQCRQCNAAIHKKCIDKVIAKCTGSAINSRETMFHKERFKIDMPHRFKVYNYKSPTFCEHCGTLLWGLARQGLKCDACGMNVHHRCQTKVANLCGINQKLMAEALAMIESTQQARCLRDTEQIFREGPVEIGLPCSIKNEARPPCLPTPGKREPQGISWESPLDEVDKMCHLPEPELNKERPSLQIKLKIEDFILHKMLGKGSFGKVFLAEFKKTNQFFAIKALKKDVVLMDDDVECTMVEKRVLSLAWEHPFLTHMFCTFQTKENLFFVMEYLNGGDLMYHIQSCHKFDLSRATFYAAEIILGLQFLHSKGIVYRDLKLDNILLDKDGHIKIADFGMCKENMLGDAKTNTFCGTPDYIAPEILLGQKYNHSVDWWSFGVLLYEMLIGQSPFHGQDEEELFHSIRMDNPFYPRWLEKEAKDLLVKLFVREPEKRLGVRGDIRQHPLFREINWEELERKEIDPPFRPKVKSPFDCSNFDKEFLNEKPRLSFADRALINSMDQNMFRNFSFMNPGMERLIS

Compound	pIC50
5-{4-[2-(4-cyclopentylpiperazin-1-yl)ethoxy]phenyl}-6-methyl-4-[(4-methyl-1H-indol-5-yl)amino]nicotinonitrile [Example 37]	7.52
CCOCCNCCOc1ccc(-c2c(C)ncc(C#N)c2Nc2ccc3[nH]ccc3c2C)cc1 [Example 19, 5-(4-{2-[(2-ethoxyethyl)amino]ethoxy}phenyl)-6-methyl-4-[(4-methyl-1H-indol-5-yl)amino]nicotinonitrile]	7.34
Cc1ncc(C#N)c(Nc2ccc3[nH]ccc3c2C)c1-c1ccc(OCCN2CCCC2)cc1 [Example 20, 6-methyl-4-[(4-methyl-1H-indol-5-yl)amino]-5-[4-(2-pyrrolidin-1-ylethoxy)phenyl]nicotinonitrile]	7.60
Cc1ncc(C#N)c(Nc2ccc3[nH]ccc3c2C)c1-c1ccc(OCCNC2CCN(C)CC2)cc1 [Example 22, 6-methyl-4-[(4-methyl-1H-indol-5-yl)amino]-5-(4-{2-[(1-methylpiperidin-4-yl)amino]ethoxy}phenyl)nicotinonitrile]	8.05
Cc1ncc(C#N)c(Nc2ccc3[nH]ccc3c2C)c1-c1ccc(OCCNCC2CCN(C)CC2)cc1 [Example 23, 6-methyl-4-[(4-methyl-1H-indol-5-yl)amino]-5-[4-(2-{[(1-methylpiperidin-4-yl)methyl]amino}ethoxy)phenyl]nicotinonitrile]	8.10
Cc1ncc(C#N)c(Nc2ccc3[nH]ccc3c2C)c1-c1ccc(OCCN2CCC(c3ccccc3)CC2)cc1 [Example 29, 6-methyl-4-[(4-methyl-1H-indol-5-yl)amino]-5-{4-[2-(4-phenylpiperidin-1-yl)ethoxy]phenyl}nicotinonitrile]	6.57
COc1ccc(-c2c(C)ncc(C#N)c2Nc2ccc3[nH]c(C)cc3c2)cc1OC [Example 48, 5-(3,4-dimethoxyphenyl)-6-methyl-4-[(2-methyl-1H-indol-5-yl)amino]nicotinonitrile]	6.25
Cc1ncc(C#N)c(Nc2ccc3[nH]ccc3c2)c1-c1ccccc1 [Example 50, 4-(1H-indol-5-ylamino)-6-methyl-5-phenylnicotinonitrile]	7.30
COc1ccc(-c2c(C)ncc(C#N)c2Nc2ccc3[nH]ccc3c2)cc1OC [Example 51, 5-(3,4-dimethoxyphenyl)-4-(1H-indol-5-ylamino)-6-methylnicotinonitrile]	7.51
COc1ccccc1-c1c(C)ncc(C#N)c1Nc1ccc2[nH]ccc2c1 [Example 52, 4-(1H-indol-5-ylamino)-5-(2-methoxyphenyl)-6-methylnicotinonitrile]	6.60
COc1cccc(-c2c(C)ncc(C#N)c2Nc2ccc3[nH]ccc3c2)c1 [Example 53, 4-(1H-indol-5-ylamino)-5-(3-methoxyphenyl)-6-methylnicotinonitrile]	7.47
COc1ccc(-c2c(C)ncc(C#N)c2Nc2ccc3[nH]ccc3c2)cc1 [Example 54, 4-(1H-indol-5-ylamino)-5-(4-methoxyphenyl)-6-methylnicotinonitrile]	7.39
Cc1ncc(C#N)c(Nc2ccc3[nH]ccc3c2)c1-c1cc2ccccc2o1 [Example 55, 5-(1-benzofuran-2-yl)-4-(1H-indol-5-ylamino)-6-methylnicotinonitrile]	7.59
Cc1ncc(C#N)c(Nc2ccc3[nH]ccc3c2)c1-c1cc2ccccc2s1 [Example 56, 5-(1-benzothiophen-2-yl)-4-(1H-indol-5-ylamino)-6-methylnicotinonitrile]	6.86
Cc1ncc(C#N)c(Nc2ccc3[nH]ccc3c2)c1-c1cccc(CN(C)C)c1 [Example 57, 5-{3-[(dimethylamino)methyl]phenyl}-4-(1H-indol-5-ylamino)-6-methylnicotinonitrile]	7.06
CCc1ncc(C#N)c(Nc2ccc3[nH]ccc3c2C)c1-c1ccc(OC)c(OC)c1 [Example 61, 5-(3,4-dimethoxyphenyl)-6-ethyl-4-[(4-methyl-1H-indol-5-yl)amino]nicotinonitrile]	6.72
COc1ccc(-c2c(C)ncc(C#N)c2Nc2cc(Cl)c3[nH]ccc3c2C)cc1OC [Example 64, 4-[(7-chloro-4-methyl-1H-indol-5-yl)amino]-5-(3,4-dimethoxyphenyl)-6-methylnicotinonitrile]	7.08
Cc1ncc(C#N)c(Nc2ccc3[nH]ccc3c2)c1-c1cccs1 [Example 65, 4-(1H-indol-5-ylamino)-6-methyl-5-(2-thienyl)nicotinonitrile]	7.10
Cc1ncc(C#N)c(Nc2ccc3[nH]ccc3c2C)c1-c1cccc(CN(C)C)c1 [Example 66, 5-{3-[(dimethylamino)methyl]phenyl}-6-methyl-4-[(4-methyl-1H-indol-5-yl)amino]pyridine-3-carbonitrile]	7.38
Cc1ncc(C#N)c(Nc2ccc3[nH]ccc3c2C)c1-c1ccc(C=O)o1 [Example 67, 5-(5-formylfuran-2-yl)-6-methyl-4-[(4-methyl-1H-indol-5-yl)amino]pyridine-3-carbonitrile]	7.68
Cc1ncc(C#N)c(Nc2ccc3[nH]ccc3c2C)c1-c1ccc(CN2CCN(C)CC2)o1 [Example 68, 6-methyl-4-[(4-methyl-1H-indol-5-yl)amino]-5-{5-[(4-methylpiperazin-1-yl)methyl]furan-2-yl}pyridine-3-carbonitrile]	7.70
Cc1ncc(C#N)c(Nc2ccc3[nH]ccc3c2C)c1-c1ccc(C=O)s1 [Example 69, 5-(5-formylthiophen-2-yl)-6-methyl-4-[(4-methyl-1H-indol-5-yl)amino]pyridine-3-carbonitrile]	8.32
Cc1ncc(C#N)c(Nc2ccc3[nH]ccc3c2C)c1-c1ccc(CN2CCN(C)CC2)s1 [Example 70, 6-methyl-4-[(4-methyl-1H-indol-5-yl)amino]-5-{5-[(4-methylpiperazin-1-yl)methyl]thiophen-2-yl}pyridine-3-carbonitrile]	7.85
